Assay results taken from patent publication US20150164767A1, “Skin Collagen Enhancing Agent” (J-Oil Mills, Inc., priority 2011, published 2015).

Key:
[1] = system: normal human dermal fibroblasts; assay: Type I collagen production by normal human dermal fibroblasts (ELISA, per unit protein); format: cell-based; settings: for production amount of collagen (relative value, no sample = 100, per unit amount of protein): 1.5×10^−5 M, 48 hours culture, n=6, FIG. 1, t-test vs control; for Type I collagen amount (ng/μg protein) (average ± SD): 48 hours, n=6, control 8.91 ± 0.26, significant (<1%)
Method: Skin collagen enhancing activity of menaquinone-7 was compared with those of vitamin K1 and menaquinone-4, using normal human fibroblasts. A menaquinone-7 reagent (Wako Pure Chemical Industries, Ltd.) was used after purity validation by HPLC. The comparison was performed at a setting concentration of 1.5×10^−5 M, which is a maximum solubility of vitamin Ks in a cell culture system. Vitamin K1 (Wako Pure Chemical Industries, Ltd.) and menaquinone-4 (Sigma) were used after purity validation by HPLC.
Normal human dermal fibroblasts (manufactured by Kurabo Industries Ltd.) were inoculated on a 96-well microplate at a cell density of 2.0×10^4 cells per well using a Dulbecco's modified Eagle's medium (DMEM) (Sigma) containing 0.5% by weight of fetal bovine serum (FBS). The medium was replaced, 48 hours after the inoculation, by DMEM containing 0.5% by weight of FBS and menaquinone-7 in a concentration shown in Table 5. A test maximum concentration solution was prepared by dissolving menaquinone-7 in ethanol and diluting it 100 times with a DMEM containing 0.5% FBS. The testing method was confirmed to be valid using magnesium ascorbic acid phosphate (VC-PMg) as a positive control. The medium containing a sample was cultured for 48 hours, and the medium supernatant was collected and subjected to ELISA for measuring the amount of type I collagen. The cells were lysed in a 0.5% Triton X-100 solution, and the protein amount was measured.
A medium and a type I collagen solution for a standard curve were placed on each well of a high-absorption ELISA plate, and coating at 37° C. for 2 hours was performed, followed by blocking with a 1% bovine serum albumin (BSA) solution at 37° C. for 1 hour. Primary antibody reaction was performed using anti-human collagen type I antibody (rabbit) diluted with a 0.3% BSA solution at 37° C. for 1 hour. Secondary antibody reaction was performed using Histofine MAX-PO(R) (rabbit) diluted with a phosphate buffer at 37° C. for 1 hour. A phosphate-citrate buffer (0.1 M, pH 4.0) solution containing 0.3 mg/mL of 2,2′-azinobis(3-ethylbenzothiazoline-6-sulfonic acid)diammounium salt (ABTS) and 0.03% hydrogen peroxide was added thereto, followed by reaction for 20 min The absorbance of the reaction solution was measured at 405 nm with a microplate reader.
The type I collagen amount in the medium was determined from the standard curve prepared by measurement on the same ELISA plate, and the type I collagen amount per unit amount of protein was calculated by dividing the type I collagen amount in the medium by the total protein amount of the cells.
The test was performed at n=6 for each group containing a sample, and the results are each shown as an average +standard deviation. The statistical processing was performed by a Student t-test against the control group not containing the sample, and the symbol * indicates a significance level of less than 1%.
The collagen enhancing activities of menaquinone-7 for human dermal fibroblasts were investigated in the concentration range shown in Table 5. The test of each group containing a sample was performed at n=6, and the results are each shown as an average value. The statistical processing was performed by a Student t-test against the control group not containing the sample, and the symbol * indicates a significance level of less than 1%.

[2] = Vitamin K (MK-7) concentration in rat skin after feeding a menaquinone-7-containing diet; format: in vivo; settings: Wistar rats, diet with menaquinone-7 150 μg/g, free feeding 90 days, average ± SD
Method: Wistar rats (male, 5-week old) were freely fed with purified feed AIN93G (manufactured by Oriental Yeast) for one week for habituation, and then separated into groups each consisting of three rats so that the total weight of each group was the same. Three rats in each group were freely fed with a rat standard diet (AIN93G) or a menaquinone-7-containing feed (menaquinone-7: 150 μg/g) composed of rat standard diet (AIN93G) and menaquinone-7 for 90 days. Then, vitamin K concentration in the skin was measured. Vitamin K was analyzed by high-performance liquid chromatography with post-column reduction using platinum black and fluorescence detection (Sato, et al., Biochim Biophys. Acta, 1622, 145-150, 2003).

[3] = system: skin collagen; assay: Skin collagen amount in rats fed MK7-containing diets (Sircol Collagen Assay Kit); format: in vivo, Crl:CD(SD)(SPF) rats; settings: 90 days; for Type I collagen amount (μg/mg wet skin weight) (average ± SD): MK7-free 38.43 ± 4.56, not significant; for Rate of increase of collagen (%): vs MK7-free diet group
Method: Four-week old male Crl:CD(SD)(SPF) rats were habituated after arrival till the start of administration, including one week for quarantine. During the quarantine and habituation, general conditions were observed every day, and the weights were measured on the first day (the day following the arrival), the third day, and the seventh day. The rats were separated into four groups each consisting of five rats so that the total weight of each group was the same.
Rats were freely fed for 90 days with any one of three types of menaquinone-7-containing feeds by adding menaquinone-7 to rat standard diet AIN93G: high MK7 diet (menaquinone-7: 45.4 μg/g diet), moderate MK7 diet (menaquinone-7: 15 μg/g diet), and low MK7 diet (menaquinone-7: 4.54 μg/g diet); or MK7-free diet.
The rats were subjected to fasting on the last day and then dissected. The hair at the abdomen region was carefully shaved with hair clippers, and the skin including the derm was sampled. The skin was cut into about 100 mg pieces and they were exactly weighed. The skin collagen amount was measured with a skin collagen measurement kit (trade name: Sircol Collagen Assay Kit, manufactured by Biocolor). Increased amounts of collagen in three groups fed with the diet containing MK7 were compared with that in the group fed with the MK7-free diet as a control. The statistical processing was performed by a Student t-test. A significance level P<0.05 was determined as to have significant difference. […] In the table, the symbol * means a significant difference.

Compound | production amount of collagen (relative value, no sample = 100, per unit amount of protein) [1] | Type I collagen amount (ng/μg protein) (average ± SD) ([1]; 0.5 × 10^−6M) | Type I collagen amount (ng/μg protein) (average ± SD) ([1]; 0.5 × 10^−6M, listed as menaquinone-7) | Type I collagen amount (ng/μg protein) (average ± SD) ([1]; 1 × 10^−5M) | Type I collagen amount (ng/μg protein) (average ± SD) ([1]; 1 × 10^−6M) | Type I collagen amount (ng/μg protein) (average ± SD) ([1]; 3 × 10^−6M) | menaquinone-7 amount necessary for promoting collagen production ([1]; conversion of 0.5×10^−6 M) [ng/g] | menaquinone-7 amount necessary for promoting collagen production ([1]; human dermal fibroblasts, lowest concentration tested) [nM] | MK-7 concentration (ng/g) in skin [2] [ng/g] | Type I collagen amount (μg/mg wet skin weight) (average ± SD) ([3]; MK7 4.54 μg/g feed) | Rate of increase of collagen (%) ([3]; MK7 4.54 μg/g feed) | Type I collagen amount (μg/mg wet skin weight) (average ± SD) ([3]; MK7 15.0 μg/g feed) | Rate of increase of collagen (%) ([3]; MK7 15.0 μg/g feed) | Rate of increase of collagen (%) ([3]; MK7 45.4 μg/g feed) | amount of collagen in skin, dose dependence ([3]; oral administration, 4.54 to 45.4 μg/g feed) | production amount of collagen ([1]; 6.0×10^−5 M)
CC1=C(C/C=C(\C)CCC[C@H](C)CCC[C@H](C)CCCC(C)C)C(=O)c2ccccc2C1=O [vitamin K1, reference compound] | only menaquinone-7 significantly increased | – | – | – | – | – | – | – | – | – | – | – | – | – | – | –
CC(C)=CCC/C(C)=C/CC/C(C)=C/CC/C(C)=C/CC/C(C)=C/CC/C(C)=C/CC/C(C)=C/CC1=C(C)C(=O)c2ccccc2C1=O [Menaquinone-7, menaquinone-7] | significantly increased | 10.66 ± 0.48 | significantly promotes production of type I collagen | 11.03 ± 0.23 | 10.26 ± 0.44 | 10.41 ± 0.49 | 325 | 500 | 427 ± 243 | 40.97 ± 6.69 | 6.6 | 43.33 ± 2.42 | 12.8 | 17.6 | tendency of dose-dependently increasing the amount of collagen | –
CC(C)=CCC/C(C)=C/CC/C(C)=C/CC/C(C)=C/CC1=C(C)C(=O)c2ccccc2C1=O [Menaquinone-4, menaquinone-4, reference compound] | only menaquinone-7 significantly increased | – | – | – | – | – | – | – | – | – | – | – | – | – | – | did not increase at all
